“Also recorded” adds a separate entry of the source.
Experiments:
[1] = tested on: SIY antigen; test: IFN-γ ELISPOT and SIY-pentamer staining in B16.SIY tumor-bearing mice; assay type: in vivo, mouse
Experimental: The mouse IFN-γ enzyme-linked Immunospot assay (ELISPOT) from BD is used according to the manufacturer's protocol. In brief, splenocytes are plated at 10^6 cells/well and stimulated overnight with SIY peptide (160 nM), PMA (50 ng/ml) and ionomycin (0.5 μM) as positive control, or medium (DMEM supplemented with 10% heat-inactivated FCS, penicillin, streptomycin, L-arginine, L-glutamine, folic acid, and L-asparagine) as negative control. IFN-γ spots are detected using biotinylated antibody and avidin-peroxidase and developed using AEC substrate (BD Bioscience). Plates are read in an Immunospot Series 3 Analyzer and analyzed with ImmunoSpot software (Cellular Technology Ltd).
5×10^6 cells/sample are labeled with PE-MHC class I tetramers (Beckman Coulter or Proimmune) consisting of murine H-2Kb complexed to either […] (SIY) peptide or […] (OVA) peptide as a negative control, anti-TCRβ-AF700 (clone H57-597), antiCD8-PO (clone 5H10), anti-CD4-PB (clone RM4-5), anti CD62L-PE_Cy7 (clone MEL-14), anti-CD44-APC (clone IM7) and the Fixable Viability dye eFluor780 (eBioScience). FACS analysis is performed using FACSCanto or LSR II cytometers with FACSDiva software (BD). Data analysis is conducted with FlowJo software (Tree Star).
IFN-γ ELISPOT and SIY-pentamer staining. […] For the ELISPOTs, 10^6 splenocytes were plated per well and stimulated overnight with SIY peptide (160 nM) or AH1 (1 μM) peptide, with PMA (50 ng/ml) plus ionomycin (0.5 μM) as a positive control, or medium as negative control. Spots were developed using the BD mouse IFN-γ kit according to the manufacturer's instructions and the number of spots was measured using an Immunospot Series 3 Analyzer and analyzed using ImmunoSpot software (Cellular Technology Ltd). For SIY-pentamer staining, splenocytes were preincubated for 15 min with anti-CD16/32 monoclonal antibody (93) to block potential nonspecific binding, and labeled with PE-MHC class I pentamer (Proimmune) consisting of murine H-2K^b complexed to […] (SIY) peptide, anti-TCRβ-AF700 (H57-597), anti-CD8-Pacific Blue (53-6.7), anti-CD4-Pacific Orange (RM4-5) (all antibodies from BioLegend) and the Fixable Viability Dye eFluor 450 (eBioscience). Stained cells were analyzed using LSR II cytometer with FACSDiva software (BD). Data analysis was conducted with FlowJo software (Tree Star).

[2] = tested on: 4T-1 tumors; test: Intratumoral treatment of 4T-1 tumors; assay type: in vivo, mouse; settings: BALB/c mice, single IT dose of 500 μg DMXAA
Experimental: (§1) In vivo tumor experiments. 10^6 of B16-SIY tumor cells, 5×10^4 B16.F10 tumor cells, 10^5 4T1 and CT26, or 10^6 other tumor cells were injected s.c. in 100 μl DPBS or HBSS on the right flank of mice. Following tumor implantation, mice were randomized into treatment groups. […] Measurements of tumors were performed twice per week using calipers, and the tumor volume was calculated with the formula: V=(length×width^2)/2. In some experiments, tumor-free survivors were rechallenged with tumor cells on the opposite flank several weeks after the injection of the primary tumor. Naïve mice were used as controls. For the contralateral experiments, mice were implanted on both flanks and only one tumor was treated. For the B16 melanoma lung metastasis experiments, mice were implanted on the flank with 5×10^4 cells B16.F10 on day 0, and then injected intravenously with 1×10^5 cells on day 7. Lungs were harvested on day 28. Administration of compounds, measurements of tumors and counting of lung tumors were performed in a blinded fashion.

[3] = tested on: innate cytokines in BM-DCs; test: Quantitative RT-PCR analysis of cytokines in BM-DCs; assay type: cell-based, mouse; settings: DMXAA 25 μg/ml, 4 h
Experimental: Quantitative RT-PCR analysis of cytokines. […] Total RNA was isolated using the RNeasy® kit (Qiagen) and incubated with Deoxyribonuclease I, Amplification Grade (Invitrogen). cDNA was synthesized using High Capacity cDNA Reverse Transcription Kit (Applied Biosystem) and expression of cytokines was measured by real-time qRT-PCR using specific primers/probes for mouse INF-β, TNF-α, IL-6 and IL-12p40, using a 7300 Real Time PCR system (Applied Biosystem). The results are expressed as 2^−ΔCt using 18s as endogenous control.

[4] = tested on: tumors; settings: background statement; cited from earlier work
[5] = tested on: tumors; settings: background statement; cited from earlier work; remark: listed apart in the source
[6] = tested on: Ag104L tumors; test: Intratumoral treatment of Ag104L tumors; assay type: in vivo, mouse; settings: C3H mice, single IT dose of 500 μg DMXAA
Experimental: as §1

[7] = tested on: IFN-β; test: Murine IFN-β ELISA, macrophages and BM-DCs; assay type: cell-based, mouse
Experimental: Murine IFN-β ELISA. […] Conditioned media were collected after 4 hours. IFN-β concentration was assessed using VeriKine™ Mouse Interferon Beta ELISA Kit (PBL interferon source).

[8] = tested on: BM-DCs (CD40, CD86, MHC class II); test: Expression of activation markers on BM-DCs by flow cytometry; assay type: cell-based, mouse; settings: WT versus STING-deficient BM-DCs; DMXAA 25 μg/ml or LPS 100 ng/ml
Experimental: Expression of activation markers by flow cytometry. […] Stained cells were analyzed using LSR II cytometer with FACSDiva software (BD) or FACSVerse with FACSuite software. Data analysis was conducted with FlowJo software (Tree Star).

[9] = tested on: TRAMP-C2 tumors; test: Intratumoral treatment of TRAMP-C2 tumors; assay type: in vivo, mouse; settings: C57BL/6 mice, single IT dose of 500 μg DMXAA
Experimental: as §1

[10] = tested on: B16.SIY tumors; assay type: in vivo
Experimental: As a comparison, the cyclic dinucleotide compounds from Aduro will be injected into tumors in parallel sets of mice. Tumor volumes are estimated twice a week using the formula described above.
as §1

[11] = tested on: five hSTING alleles (WT, REF, HAQ, AQ and Q); test: IFN-β luciferase reporter assay in HEK 293T cells expressing hSTING variants; assay type: cell-based, human; settings: 100 μg/ml DMXAA, 6 hours
Experimental: Luciferase Assay. […] After 20 min, stimulation mixtures were removed and normal media was added. After a total of 6 hours, cell lysates were prepared and reporter gene activity measured using the Dual Luciferase Assay System (Promega) on a Spectramax M3 luminometer.

## Cc1ccc2c(=O)c3cccc(CC(=O)O)c3oc2c1C [DMXAA, 5,6-dimethylXAA (xanthenone-4-acetic acid)]
[1]; STING^−/− mice
  frequencies of SIY-specific T cells: markedly reduced
[1]; WT mice, spleens (b243 also tumors), after IT DMXAA
  SIY-specific CD8+ T cells by SIY pentamer staining: higher amount of CD8+ SIY specific T cells; also recorded: high frequency of SIY-specific CD8^+ T cells
[1]; one week after injection
  endogenous T cell response against SIY (ELISPOT and CD8 SIY positive cells in spleen and tumors): highly increased
[1]; one week after injection, versus saline
  increase in number of specific T cells producing IFN-g upon stimulation with SIY (ELISPOT): 10 fold
[1]; splenocytes 5 days after treatment, 500 μg IT, WT mice
  frequency of SIY-specific IFN-γ-producing T cells (ELISPOT): marked increase
[2]
  tumor growth: significantly reduced the growth
[3]; STING^−/− BM-DCs
  expression of innate cytokines: not STING^−/− BM-DCs
[3]; WT BM-DCs
  expression of innate cytokines: upregulated other cytokines such as TNFα, IL6, IL1, IL10, and IL12 in a STING dependent manner; also recorded: IFN-β, TNF-α, IL-1β, IL-6 and IL12p35 were induced
[4]
  antitumor effect: induced haemorrhagic necrosis and tumour regression
[5]
  outcome of clinical trials for the treatment of tumors: all failed
[6]
  tumor growth: significantly reduced the growth
[7]; BM-DC from WT versus STING^−/− mice, DMXAA
  IFN-β production: a high production of IFN-β
[7]; STING^−/− macrophages, DMXAA 50 μg/ml
  IFN-β production: only in WT macrophages; also recorded: not from STING^−/− macrophages
[7]; WT macrophages, DMXAA 50 μg/ml
  IFN-β production: high production of IFN-β; also recorded: IFN-β secretion was detected
[8]
  induction of co-stimulatory molecules (CD40, CD86, MHC class II): upregulated activation markers such as CD40 and C86 in a STING dependent manner; also recorded: observed only in WT cells
[9]
  tumor growth: significantly reduced the growth
[10]; WT B6 mice, tumors 100-200 mm3, single intratumoral dose
  mice that reject the tumors: 80-90%
[10]; WT mice, single IT dose of 500 μg at day 7
  tumor regression and rejection: potent tumor regression in all animals and complete tumor rejection in the majority of mice
[10]; tumors in both flanks, only one treated IT
  regression of injected and non-injected secondary tumor: Tumor regression was observed in both sites
[11]
  IFN-β reporter activation: failed to activate
